Columns and labels:
Type in all cases: cell-based
human TLR8 = experiment: TLR8 cellular NFκB-luc reporter assay in transiently transfected HEK293 cells; conditions: lowest effective concentration, 6 hours incubation
Experimental: (§1) The ability of compounds to activate human TLR7 and/or TLR8 was assessed in a cellular reporter assay using HEK293 cells transiently transfected with a TLR7 or TLR8 expression vector and NFκB-luc reporter construct. In one instance the TLR expression construct expresses the respective wild type sequence or a mutant sequence comprising a deletion in the second leucine-rich repeat of the TLR.
(§2) Briefly, HEK293 cells were grown in culture medium (DMEM supplemented with 10% FCS and 2 mM Glutamine). For transfection of cells in 10 cm dishes, cells were detached with Trypsin-EDTA, transfected with a mix of CMV-TLR7 or TLR8 plasmid (750 ng), NFκB-luc plasmid (375 ng) and a transfection reagent and incubated overnight at 37° C. in a humidified 5% CO2 atmosphere. Transfected cells were then detached with Trypsin-EDTA, washed in PBS and resuspended in medium to a density of 1.67×10^5 cells/mL. Thirty microliters of cells were then dispensed into each well in 384-well plates, where 10 μL of compound in 4% DMSO was already present. Following 6 hours incubation at 37° C., 5% CO2, the luciferase activity was determined by adding 15 μl of Steady Lite Plus substrate (Perkin Elmer) to each well and readout performed on a ViewLux ultraHTS microplate imager (Perkin Elmer). Dose response curves were generated from measurements performed in quadruplicates. Lowest effective concentrations (LEC) values, defined as the concentration that induces an effect which is at least two fold above the standard deviation of the assay, were determined for each compound.

human TLR7 = experiment: TLR7 cellular NFκB-luc reporter assay in transiently transfected HEK293 cells; conditions: lowest effective concentration, 6 hours incubation
Experimental: as §1, §2

PBMC-IFNa = experiment: PBMC-IFNa; conditions: Table IIC; lowest effective concentration; read-out: PBMC-IFNa (LEC)

Row | Compound | Human TLR8 (LEC, μM) (human TLR8; Table II A) | Human TLR7 (LEC, μM) (human TLR7; Table II A) | minimal effective concentration (PBMC-IFNa) | Human TLR8 (LEC, μM) (human TLR8; Table IIC) | Human TLR7 (LEC, μM) (human TLR7; Table IIC) | also measured
1 | CCCCNc1nc(N)nc2c1CN(C(=O)C1CCC1)CC2 [Compound 1] |  |  |  |  |  | Human TLR8 (LEC, μM) (human TLR8; Table II B): 0.32 µM; Human TLR7 (LEC, μM) (human TLR7; Table II B): 0.83 µM
2 | CCCCNc1nc(N)nc2c1CCN(C(=O)c1ccccc1)C2 [Compound 2] | 0.75 µM | 3.96 µM |  |  |  | 
3 | CCCCNc1nc(N)nc2c1CCN(C(=O)c1cccn1C)C2 [Compound 3] | 0.60 µM | 0.79 µM |  |  |  | 
4 | CCCCNc1nc(N)nc2c1CCN(C(=O)C1CC1)C2 [Compound 4] | 0.47 µM | 6.82 µM |  |  |  | 
5 | CCCCNc1nc(N)nc2c1CN(C(C)=O)CC2 [Compound 5] |  |  |  |  |  | Human TLR8 (LEC, μM) (human TLR8; Table II B): 0.50 µM; Human TLR7 (LEC, μM) (human TLR7; Table II B): 4.90 µM
6 | CCCCNc1nc(N)nc2c1CN(C(=O)Cc1cccs1)CC2 [Compound 6] |  |  |  |  |  | Human TLR8 (LEC, μM) (human TLR8; Table II B): 0.88 µM; Human TLR7 (LEC, μM) (human TLR7; Table II B): 3.45 µM
7 | CCCCNc1nc(N)nc2c1CN(C(=O)C(C)C)CC2 [Compound 7] |  |  |  |  |  | Human TLR8 (LEC, μM) (human TLR8; Table II B): 1.62 µM; Human TLR7 (LEC, μM) (human TLR7; Table II B): 8.13 µM
8 | CCCCNc1nc(N)nc2c1CN(C(=O)CC)CC2 [Compound 8] |  |  |  |  |  | Human TLR8 (LEC, μM) (human TLR8; Table II B): 0.40 µM; Human TLR7 (LEC, μM) (human TLR7; Table II B): 2.34 µM
9 | CCCCNc1nc(N)nc2c1CCN(C(=O)Cc1cccs1)C2 [Compound 9] | 0.46 µM | 1.60 µM |  |  |  | 
10 | CCCCNc1nc(N)nc2c1CCN(C(=O)c1cc(C)n(C)n1)C2 [Compound 10] | 0.71 µM | 2.04 µM |  |  |  | 
11 | CCCCNc1nc(N)nc2c1CCN(C(=O)C1CCC1)C2 [Compound 11] | 0.51 µM | 2.10 µM |  |  |  | 
12 | CCCCNc1nc(N)nc2c1CCN(C(=O)c1cccs1)C2 [Compound 12] | 0.36 µM | 2.40 µM |  |  |  | 
13 | CCCCNc1nc(N)nc2c1CCN(C(=O)C(C)C)C2 [Compound 13] | 0.85 µM | 3.21 µM |  |  |  | 
14 | CCCCNc1nc(N)nc2c1CCN(C(=O)c1cscn1)C2 [Compound 14] | 0.90 µM | 4.43 µM |  |  |  | 
15 | CCCCNc1nc(N)nc2c1CCN(C(=O)c1csc(N)n1)C2 [Compound 15] | 1.31 µM | 4.66 µM |  |  |  | 
16 | CCCCNc1nc(N)nc2c1CCN(C(=O)COC)C2 [Compound 16] | 1.49 µM | 5.37 µM |  |  |  | 
17 | CCCCNc1nc(N)nc2c1CCN(C(C)=O)C2 [Compound 17] | 0.43 µM | 5.82 µM |  |  |  | 
18 | CCCCNc1nc(N)nc2c1CCN(C(=O)c1nccn1C)C2 [Compound 18] | 0.96 µM | 6.16 µM |  |  |  | 
19 | CCCCNc1nc(N)nc2c1CCN(C(=O)c1ccccn1)C2 [Compound 19] | 0.83 µM | 6.59 µM |  |  |  | 
20 | CCCCNc1nc(N)nc2c1CCN(C(=O)c1sccc1Cl)C2 [Compound 20] | 0.68 µM | 7.15 µM |  |  |  | 
21 | CCCCNc1nc(N)nc2c1CCN(C(=O)c1ccsc1)C2 [Compound 21] | 1.85 µM | 8.13 µM |  |  |  | 
22 | CCCCNc1nc(N)nc2c1CCN(C(=O)c1cnccn1)C2 [Compound 22] | 1.37 µM | 9.35 µM |  |  |  | 
23 | CCCCNc1nc(N)nc2c1CCN(C(=O)CC#N)C2 [Compound 23] | 2.67 µM | 11.62 µM |  |  |  | 

Row | Compound | Human TLR8 (LEC, μM) (human TLR8; Table II A) | Human TLR7 (LEC, μM) (human TLR7; Table II A) | minimal effective concentration (PBMC-IFNa) | Human TLR8 (LEC, μM) (human TLR8; Table IIC) | Human TLR7 (LEC, μM) (human TLR7; Table IIC) | also measured
24 | CCCCNc1nc(N)nc2c1CCN(C(=O)CC(F)(F)F)C2 [Compound 24] | 2.29 µM | 12.93 µM |  |  |  | 
25 | CCCCNc1nc(N)nc2c1CCN(C(=O)[C@@H](N)C(C)C)C2 [Compound 25] |  |  | 1.1 µM | 1.8 µM | 20.0 µM | 
26 | CCCCNc1nc(N)nc2c1CCN(C(=O)[C@H](C)N)C2 [Compound 26] |  |  | 0.6 µM | 2.1 µM | 16.8 µM | 
27 | CCCCNc1nc(N)nc2c1CCN(C(=O)c1csnn1)C2 [Compound 27] |  |  | 1.2 µM | 1.9 µM | >25 µM | 
28 | CCCCNc1nc(N)nc2c1CCN(C(=O)c1ccncc1)C2 [Compound 28] |  |  | 1.9 µM | 2.2 µM | 8.6 µM | 
29 | CCCCNc1nc(N)nc2c1CCN(C(=O)C1CCOCC1)C2 [Compound 29] |  |  | 8.7 µM | 7.5 µM | >25 µM | 
30 | CCCCNc1nc(N)nc2c1CCN(C(=O)CC)C2 [Compound 30] |  |  | 0.5 µM | 0.5 µM | 5.0 µM | 
31 | CCCCNc1nc(N)nc2c1CN(C(=O)C1CCOCC1)CC2 [Compound 31] |  |  | 1.3 µM | 0.6 µM | 7.7 µM | 
32 | CCCCNc1nc(N)nc2c1CN(C(=O)CC#N)CC2 [Compound 32] |  |  | 0.9 µM | 0.6 µM | 7.1 µM | 
33 | CCCCNc1nc(N)nc2c1CN(C(=O)c1ccsc1)CC2 [Compound 33] |  |  | 0.2 µM | 0.2 µM | 0.3 µM | 
34 | CCCCNc1nc(N)nc2c1CN(C(=O)c1cc(C)on1)CC2 [Compound 34] |  |  | 0.2 µM | 0.4 µM | 0.8 µM | 
35 | CCCCNc1nc(N)nc2c1CN(C(=O)c1cocn1)CC2 [Compound 35] |  |  | 0.2 µM | 0.2 µM | 0.7 µM | 
36 | CCCCNc1nc(N)nc2c1CCN(C(=O)c1cocn1)C2 [Compound 36] |  |  | 0.6 µM | 0.9 µM | 4.7 µM | 
37 | CCCCNc1nc(N)nc2c1CCN(C(=O)c1nccc3ccccc13)C2 [Compound 37] |  |  | 1.8 µM | 1.7 µM | 7.2 µM | 
38 | CCCCNc1nc(N)nc2c1CCN(C(=O)c1cc(C)on1)C2 [Compound 38] |  |  | 0.6 µM | 0.8 µM | 5.2 µM | 
39 | CCC[C@@H](CCO)Nc1nc(N)nc2c1CN(C(=O)c1ccccc1)CC2 [Compound 39] |  |  | 0.5 µM | 4.2 µM | 2.5 µM | 
40 | CCC[C@@H](CCO)Nc1nc(N)nc2c1CN(C(=O)c1cscn1)CC2 [Compound 40] |  |  | 0.2 µM | 4.5 µM | 2.2 µM | 
41 | CCC[C@@H](CCO)Nc1nc(N)nc2c1CN(C(=O)c1ccco1)CC2 [Compound 41] |  |  | 0.1 µM | 0.4 µM | 0.4 µM | 
42 | CCC[C@@H](CCO)Nc1nc(N)nc2c1CN(C(=O)c1csc(C)n1)CC2 [Compound 42] |  |  | 0.2 µM | 2.1 µM | 2.2 µM | 
43 | CCCC[C@@H](CCO)Nc1nc(N)nc2c1CN(C(=O)c1ccco1)CC2 [Compound 43] |  |  | 0.04 µM | 0.7 µM | 0.1 µM | 
44 | CCCC[C@@H](CCO)Nc1nc(N)nc2c1CN(C(=O)c1csc(C)n1)CC2 [Compound 44] |  |  | 0.2 µM | 6.6 µM | 1.0 µM | 
45 | CCC[C@@H](CCO)Nc1nc(N)nc2c1CCN(C(=O)c1ccncc1)C2 [Compound 52] |  |  |  | 15 µM | 12.1 µM | 

Source: patent publication US9365571B2, “Piperidino-pyrimidine derivatives for the treatment of viral infections” (Janssen Sciences Ireland UC, priority 2012, dated 2016)
